Experimental data as given in patent publication US6414001B2, “Ether and amide compounds preparation thereof composition containing same and use thereof as antidiadetics” (Kotobuki Pharmaceutical Co. Ltd., priority 2000, dated 2002).

How the values were obtained:
db/db mice = assay: Hypoglycemic activity in mice; assay type: in vivo; conditions: for inhibition in vivo at 3 mg/kg: 3 mg/kg once a day for four consecutive days; for inhibition in vivo at 30 mg/kg: 30 mg/kg once a day for four consecutive days
Procedure: Hypoglycemic Activity in Mice
Test compounds were suspended in 0.5% Methyl cellulose solution and administered (p.o.) to db/db mice (obtained from Nihon Clea) at a range of 3-30 mg/kg once a day for four consecutive days. Troglitazone (300 mg/kg) was also administrated for control.

[1] = Mus musculus, po, 10 mg/kg once a day for four consecutive days, suspended in 0.5% methyl cellulose
[2] = Mus musculus, po, suspended in 0.5% methyl cellulose

melting point	Molecule	inhibition in vivo at 10 mg/kg (db/db mice; [1])	further results
196 to 198 °C	Cc1oc(-c2ccccc2)nc1CCOc1ccc(NC(=O)C(=O)O)cc1 [Compound 8, 2-[4-(2-(5-Methyl-2-phenyl-1,3-oxazole-4-yl)ethoxy)phenyl]amino-2-oxo-acetic acid]	26%	
	COc1ccc(-c2nc(CCOc3ccc(NS(=O)(=O)C(F)(F)F)cc3)c(C)o2)cc1 [Compound 18]	34.7%	
	Cc1oc(-c2ccc(F)cc2)nc1CCOc1ccc(NS(=O)(=O)C(F)(F)F)cc1 [Compound 59]		inhibition in vivo at 3 mg/kg (db/db mice; [2]): 18.4%
147 to 149 °C	Cc1oc(-c2ccccc2)nc1CC(=O)Nc1ccc(NS(=O)(=O)C(F)(F)F)cc1 [Compound 48]		inhibition in vivo at 30 mg/kg (db/db mice; [2]): 65.4%
	Cc1oc(-c2cc(C(C)(C)C)c(O)c(C(C)(C)C)c2)nc1CCOc1ccc(NS(=O)(=O)C(F)(F)F)cc1 [Compound 19]	12.8%	
	CN(CCOc1ccc(NS(=O)(=O)C(F)(F)F)cc1)c1ccccn1 [Compound 11, 4-[2-(N-Methyl-N-2-pyridyl)aminoethoxy]benzene trifluoromethanesulfonamide]	15.4%	
	Cc1oc(-c2ccc(Cl)cc2)nc1CCOc1ccc(NS(=O)(=O)C(F)(F)F)cc1 [Compound 58]		inhibition in vivo at 3 mg/kg (db/db mice; [2]): 43.4%
	Cc1c(C)c2c(c(C)c1O)CCC(C)(COc1ccc(CC3SC(=O)NC3=O)cc1)O2 (stereo not shown) [Troglitazone, reference compound]		inhibition in vivo at 300 mg/kg (db/db mice; Mus musculus, po, 300 mg/kg, control drug): 34%
76 to 78 °C	CCc1ccc(CCOc2ccc(NS(=O)(=O)C(F)(F)F)cc2)nc1 [Compound 10, 4-[2-(5-Ethylpyridine-2-yl)ethoxy]benzene trifluoromethylsulfonamide]	32.4%	
133 to 134 °C	COC(=O)c1ccc(OCCc2nc(-c3ccccc3)oc2C)cc1O [Compound 25, 2-Hydroxy-4-[2-(5-methyl-2-phenyl-1,3-oxazole-4-yl)ethoxy]benzoic acid methyl ester]		
113 to 115 °C	Cc1oc(-c2ccccc2)nc1CCOc1ccc(CNS(=O)(=O)C(F)(F)F)cc1 [Compound 9, 2-[4-(2-(5-Methyl-2-phenyl-1,3-oxazole-4-yl)ethoxy)benzyl]trifluoromethylsulfonamide]	24%	
133 to 135 °C	CCOc1cc(OCCc2nc(-c3ccccc3)oc2C)ccc1NS(=O)(=O)C(F)(F)F [Compound 40]		inhibition in vivo at 30 mg/kg (db/db mice; [2]): 53.4%
	Cc1oc(-c2cc(C(C)(C)C)c(OCC(=O)O)c(C(C)(C)C)c2)nc1CCOc1ccc(NS(=O)(=O)C(F)(F)F)cc1 [Compound 68]		inhibition in vivo at 3 mg/kg (db/db mice; [2]): 21.2%
	CCOc1cc(OCCc2nc(-c3ccccc3)oc2C)ccc1C(=O)O [Compound 31, 2-Ethoxy-4-[2-(5-methyl-2-phenyl-1,3-oxazole-4-yl)ethoxy]benzoic acid]		inhibition in vivo at 30 mg/kg (db/db mice; [2]): 19%
	Cc1oc(-c2ccccc2)nc1CCOc1ccc(NS(=O)(=O)C(F)(F)F)c(O)c1 [Compound 42]	29.6%	
	Cc1oc(-c2ccc(O)c(C(C)(C)C)c2)nc1CCOc1ccc(NS(=O)(=O)C(F)(F)F)cc1 [Compound 70]		inhibition in vivo at 30 mg/kg (db/db mice; [2]): 51%
167 to 168 °C	Cc1oc(-c2ccc(OCC(=O)O)cc2)nc1CCOc1ccc(NS(=O)(=O)C(F)(F)F)cc1 [Compound 67]		inhibition in vivo at 3 mg/kg (db/db mice; [2]): 33.1%
	Cc1oc(-c2ccccc2)nc1CC(=O)Nc1ccc(C(=O)O)c(O)c1 [Compound 52]		inhibition in vivo at 30 mg/kg (db/db mice; [2]): 10.5%
	4-[2-(5-Methyl-2-phenyl-1,3-oxazole-4-yl)ethoxy]benzene trifluoromethyl sulfonamide [Compound 2]		Hypoglycemic activity (%) (db/db mice; p.o., 10 mg/kg once a day for four consecutive days, suspended in 0.5% methyl cellulose): 49.0%
